Patent publication EP0035728A1, “Cytostatically active amino-polyols, medicaments containing these compounds and their use” (Henkel Kommanditgesellschaft auf Aktien, priority 1980, dated 1981)

How the values were obtained:
[1] = Cytostatic activity (test not described further); conditions: result in words, no test conditions given
[2] = system: Tumorart P 388 (Leukämie); test: P 388 leukemia survival test in mice (NCI protocol 1200), T/C; assay type: in vivo, Mäusen; conditions: nine doses, P 388 set i.p. with 10^6 cells/mouse, survival vs untreated controls
Protocol: Die T/C-Werte dieser Verbindung bei ihrer Austestung am TumorP 388 (Leukämie) unter Standardprüfbedingungen betragen 166 % (100 mg/kg) bzw. 165 % (50 mg/kg).
Die nachfolgenden Versuche wurden durchgeführt nach Testvorschriften des National Cancer Intitute Bethesda; Maryland 200014, veröffentlicht in "Cancer Chemotherapy Reports" Part 3, September 1972, Vol. 3, Nr. 2. Als Wirksubstanz wurde das Di-(2-hydroxy-3-brompropan)-glucamin des Beispiels 1 verwendet. Die Substanz wurde als wäßrige 1-%ige Injektionslösung unmittelbar vor der Applikation frisch hergestellt.
Bei Mäusen wurde gemäß Protokoll 1200 (Seite 91.c.) die Tumorart P 388 (Leukämie) i.p. mit 10^6 Zellen/Maus gesetzt. Die mittlere Überlebensdauer der nicht mit dem erfindungsgemäßen Wirkstoff behandelten Tiere wurde bestimmt.
Einer weiteren Gruppe von Versuchstieren wird der Wirkstoff appliziert. Der Wirkstoff wird dabei in neun Gaben in unterschiedlichen Versuchsreihen einmal zu je 100 mg/kg und in einer weiteren Versuchsreihe zu je 50 mg/kg verabreicht. In allen Fällen wird eine signifikante Verlängerungs der Lebensdauer der behandelten Testtiere gegenüber der Kontrollgruppe der nicht behandelten Tiere erzielt.

Compound	cytostatische Wirksamkeit [1]	Verlängerungsrate T/C ([2]; 50 mg/kg per dose) [%]	Verlängerungsrate T/C ([2]; 100 mg/kg per dose) [%]
CN(CC(O)CBr)C[C@H](O)[C@@H](O)[C@H](O)[C@H](O)CO (some centres unmarked) [N-Methyl-N-(2-hydroxy-3-brom-propyl)-glucamin]	unwirksam		
CN(CC(O)CCl)C[C@H](O)[C@@H](O)[C@H](O)[C@H](O)CO (some centres unmarked) [entsprechende 3-Chlorverbindung]	unwirksam		
Di-(2-hydroxy-3-brompropan)-glucamin [Beispiel 1]	cytostatisch aktiv	165	166
